Reference: patent US20230372433A1, “NANOPARTICLE FOR ANTI-CANCER PEPTIDES AND USES THEREOF” (KING'S COLLEGE LONDON, priority 2020, published 2023)

Key:
[1] = Tryptophan fluorescent binding assay, POPC vesicles; details: 50 μM peptide, PBS pH 7.4
Description: (§1) In brief, 50 μM peptides were fixed and incubated with titrated POPC vesicles (black) or 3POPC/1POPG vesicles (grey) at concentrations of 0, 12.5, 25, 50, 100, 250, 500, 1000, 2500, and 5000 μM in phosphate buffered saline (1X, pH 7.4). The lipid concentration that causes 50% peptide binding was determined using a tryptophan fluorescent binding assay and the values are shown as lipid per peptide.
(§2) The lipids 1-palmitoyl-2-oleoyl-sn-glycero-3-phosphocholine (POPC), 1-palmitoyl-2-oleoyl-snglycero-3-phospho-(1′-rac-glycerol) (POPG) were purchased from Avanti Polar Lipids and dissolved in chloroform. Large unilamellar vesicles (LUVs) were produced by extrusion through 100 nm pore filter using an extruder and filters purchased from Avanti Polar Lipids.
(§3) Peptides (50 μM) and POPC/POPG LUVs (600 μM) were prepared in 10 mM phosphate buffer (pH 7.0). The solutions were incubated and measured after 60 minutes. Excitation was fixed at 280 nm (slit 9 nm) and emission was collected from 300 to 450 nm (slit 9 nm). The spectra were recorded using a Synergy H1 Hybrid Multi-Mode Reader (FIG. 3A) and Cytation™ 5 Cell Imaging Multi-Mode Reader (FIG. 2) from BioTek and were averaged over 3 scans.
(§4) Table 3 illustrates the lipid concentration-induced 50% peptide binding onto a liposome. 50 μM peptide was fixed and incubated with titrated lipid (POPC vesicles or 3POPC/1POPG vesicles) at concentrations of 0, 12.5, 25, 50, 100, 250, 500, 1000, 2500, and 5000 μM in phosphate buffered saline (1X, pH 7.4). The lipid concentration that causes 50% peptide binding was determined using tryptophan fluorescent binding assay and the values are shown as lipid per peptide. IN-terminus is free, C-terminus: —W—NH2.

[2] = tested on: U2OS (human bone osteosarcoma); test: MTT cytotoxicity assay, U2OS; assay type: cell-based; details: 72 hr
[3] = tested on: HEK293T (human embryonic kidney cell); test: MTT cytotoxicity assay, HEK293T; assay type: cell-based; details: 72 hr, MTT; read-out: IC50 HEK293T
[4] = tested on: MCF-10A (human breast epithelial cell); test: cells; details: read-out: IC50 MCF-10A; 72 hr, MTT
Excerpt: HMLER (human mammary endothelial cancer cells), HMLER-shEcad (human mammary endothelial cancer stem cells), and MCF-10A (healthy human mammary endothelial) cells were maintained in Mammary Epithelial Cell Growth Medium (MEGM) with supplements and growth factors: bovine pituitary extract (BPE), hydrocortisone, human epidermal growth factor (hEGF), insulin, and gentamicin/amphotericin-B. HEK293T (human embryonic kidney cell), and U2OS (homo sapiens bone osteosarcoma) cells were maintained in Dulbecco's Modified Eagle's Medium (DMEM) with a final concentration of 10% fetal bovine serum. The cells were grown in T75 flask at 310 K in a humidified atmosphere containing 5% CO2.
The colourimetric MTT (3-(4,5-dimethylthiazol-2-yl)-2,5-diphenyltetrazolium bromide) assay was used to determine the toxicity of the anti-cancer peptides and conventional anti-cancer drugs. 5×10^3 cells were seeded in each well of a 96-well microplate. The cells were incubated overnight. Elevated concentrations of the compounds (0, 0.1, 0.2, 0.4, 0.8, 1.6, 3.1, 6.3, 12.5, 25, 50 and 100 μM) were added and incubated for 72 hr with a total volume 200 μL. The stock solutions of the compounds were prepared as 5 mM solutions in DMSO and diluted using media or in pure water. The final concentration of DMSO in each well was either 0.5% or 0% and this amount was present in the untreated control. After 72 hr, 20 μL of a 4 mg/mL solution of MTT in PBS was added to each well, and the plate was incubated for an additional 4 hr. The MEGM/MTT mixture was aspirated and 100 μL of DMSO was added to dissolve the resulting purple formazan crystals. The absorbance of the solutions in each well was read at 550 nm wavelength. Absorbance values were normalized to either DMSO-containing or non DMSO-containing control wells and plotted as concentration of test compound versus % cell viability. ICso values were interpolated from the resulting dose dependent curves.
The peptides were screened against several different human cell lines and their cytotoxicity were determined. Cell lines utilised include MCF-10A (human breast epithelial cell), HMLER (human breast cancer bulk cell), HMLER-shEcad (human breast cancer stem cell), HEK293T (human embryonic kidney cell), and U2OS (human bone osteosarcoma).

[5] = ANTS/DPX liposome leakage assay, 3POPC/1POPG vesicles; assay type: biochemical; details: 0.5 mM vesicles
Description: (§5) In brief, 0.5 mM POPC vesicles (grey) or POPC:POPG vesicles (ratio 3:1, black) were incubated with peptide concentrations of 0, 0.02, 0.04, 0.08, 0.16, 0.32, 0.64, 1.25, 2.5, 5, 10, and 20 μM in each A) hydrochloric acid-adjusted phosphate buffered saline (1X, pH 4.8) and B) phosphate buffered saline (1X, pH 7.4).
as §2
(§6) 5 mM ANTS (8-aminonaphthalene-1,3,6-trisulfonic acid, disodium salt) and 12.5 mM DPX (p-xylene-bis-pyridinium bromide) were entrapped in 0.1 μm diameter extruded vesicles with lipids. Gel filtration chromatography using a Sephadex G-100 (GE Healthcare Life Sciences Inc) was used to remove external free ANTS/DPX from LUVs with entrapped contents. LUVs were diluted to 0.5 mM and used to measure the leakage activity by addition of aliquots of peptides. Leakage was measured after 3 h incubation. 10% Triton was used as the positive control to measure the maximum leakage of the vesicle. Fluorescence emission spectra were recorded using excitation and emission wavelength of 350 nm and 510 nm for ANTS/DPX using a BioTek Synergy H1 Hybrid Multi-Mode Reader.
(§7) Table 4 illustrates peptide concentration-induced 50 ANTS/DPX liposome leakage. 0.5 mM POPC and 3POPC/1POPG vesicles were fixed and incubated with titrated peptide concentration (0, 0.02, 0.04, 0.08, 0.16, 0.32, 0.64, 1.25, 2.5, 5, 10, and 20 μM) each in phosphate buffered saline (1X, pH 7.4) and hydrochloric acid-adjusted phosphate buffered saline (1X, pH 4.8). The values are shown as lipid per peptide. IN-terminus is free, C-terminus: —W—NH2.

[6] = tested on: HMLER (human breast cancer bulk cell); test: MTT cytotoxicity assay, HMLER; assay type: cell-based; details: 72 hr, MTT; read-out: IC50 HMLER
[7] = ANTS/DPX liposome leakage assay, POPC vesicles; assay type: biochemical; details: 0.5 mM vesicles
Description: as §5, §2, §6, §7

[8] = tested on: HMLER-shEcad (human breast cancer stem cell); test: MTT cytotoxicity assay, HMLER-shEcad; assay type: cell-based; details: 72 hr, MTT; read-out: IC50 HMLER-shEcad
[9] = Tryptophan fluorescent binding assay, 3POPC/1POPG vesicles; details: 50 μM peptide, PBS pH 7.4
Description: as §1, §2, §3, §4

Sequence	Lipid Concentration-induced 50% Peptide Binding (L/P) POPC Vesicle [1] [L/P]	IC50 [2] [µM]	IC50 [3] [µM]	IC50 [4] [µM]	Peptide Concentration-induced 50% ANTS/DPX leakage at pH 4.8 (L/P) 3POPC/1POPG Vesicle [5] [L/P]	Peptide Concentration-induced 50% ANTS/DPX leakage at pH 7.4 (L/P) 3POPC/1POPG Vesicle [5] [L/P]	IC50 [6] [µM]	Peptide Concentration-induced 50% ANTS/DPX leakage at pH 4.8 (L/P) POPC Vesicle [7] [L/P]	Peptide Concentration-induced 50% ANTS/DPX leakage at pH 7.4 (L/P) POPC Vesicle [7] [L/P]	IC50 [8] [µM]	Lipid Concentration-induced 50% Peptide Binding (L/P) 3POPC/1POPG Vesicle [9] [L/P]
GLLDLLKLLLHAAG [DKH]	10.00	21.1 ± 3.01	6.15 ± 1.34	7.05 ± 0.21	58	274	3.45 ± 0.07	41	614	2.8 ± 0.28	0.46
GLLDLLKLLLKAAG [DKK]	2.75	10.4 ± 1.7	3.4 ± 0.28	2.57 ± 0.52	227	156	1.95 ± 0.35	47	463	1.2 ± 0.14	6.88
GLLELLHLLLKAAG [EHK]	0.56	25	5.35 ± 0.07	3.6 ± 0.99	117	505	1.35 ± 0.35	55	981	0.71 ± 0.13	0.42
GLLELLKLLLEAAG [EKE]	2.75	8 ± 0.71	5.15 ± 0.21	8.8	438	657	1.8 ± 0.28	75	738	1.3 ± 0.14	1.63
GLLELLKLLLHAAG [EKH]	0.75	23.8 ± 0.81	6.65 ± 1.34	7.9 ± 0.42	88	365	2.75 ± 0.07	55	608	2.18 ± 0.31	0.19
GLLELLKLLLKAAG [EKK]	1.50	12.2 ± 1.84	3.35 ± 0.49	1.7 ± 0.11	219	235	1.72 ± 0.21	60	1095	1.19 ± 0.4	0.63
GLLHLLELLLEAAG [HEE]	0.58	47.5 ± 11	10.2 ± 0.2	58 ± 41	122	792	6.5 ± 0.71	100	876	4.95 ± 0.49	0.50
GLLHLLHLLLKAAG [HHK]	0.68	12.7 ± 1.91	5.25 ± 1.48	5.6 ± 0.14	111	160	3.15 ± 0.07	149	1133	1.75 ± 0.21	0.20
GLLHLLKLLLEAAG [HKE]	0.75	16 ± 0.78	5.15 ± 0.64	7.6 ± 0.42	94	365	2.7 ± 0.28	173	692	1.9 ± 0.42	0.25
GLLHLLKLLLHAAG [HKH]	0.18	18.9 ± 1.24	5.7 ± 0.99	6.1	47	274	3.45 ± 0.21	193	1077	3.1 ± 0.57	0.38
